According to patent US6552196B2, “Quinolone carboxylic acid derivatives” (Dong Wha Pharmaceutical Industrial Co., Ltd., priority 1997, dated 2003):

Legend:
Assay type in all cases: cell-based
[1] = test system: Staphylococcus aureus 121E; assay: In vitro antibacterial activity against resistant strains (MIC); conditions: resistant strain Staphylococcus aureus 121E; 2-fold agar dilution; methicillin resistant strains 48 hours at 30° C.
In short: (§1)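 Test strains from the Hoechst standard set are inoculated at 10^7 cfu/ml. Readings follow 18 h culture at 37 °C, except methicillin-resistant strains, read after 48 h at 30 °C.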

[2] = test system: Staphylococcus aureus 208E; assay: as above; conditions: resistant strain Staphylococcus aureus 208E; 2-fold agar dilution; methicillin resistant strains 48 hours at 30° C.
In short: as §1

[3] = test system: Staphylococcus aureus 693E; assay: as above; conditions: resistant strain Staphylococcus aureus 693E; 2-fold agar dilution; methicillin resistant strains 48 hours at 30° C.
In short: as §1

[4] = test system: Staphylococcus aureus 293; assay: as above; conditions: resistant strain Staphylococcus aureus 293; 2-fold agar dilution; methicillin resistant strains 48 hours at 30° C.
In short: as §1

[5] = test system: Staphylococcus aureus 692E; assay: as above; conditions: resistant strain Staphylococcus aureus 692E; 2-fold agar dilution; methicillin resistant strains 48 hours at 30° C.
In short: as §1

[6] = test system: Staphylococcus aureus 241; assay: as above; conditions: resistant strain Staphylococcus aureus 241; 2-fold agar dilution; methicillin resistant strains 48 hours at 30° C.
In short: as §1

[7] = test system: Staphylococcus aureus 701E; assay: as above; conditions: resistant strain Staphylococcus aureus 701E; 2-fold agar dilution; methicillin resistant strains 48 hours at 30° C.
In short: as §1

[8] = test system: Staphylococcus aureus 697E; assay: as above; conditions: resistant strain Staphylococcus aureus 697E; 2-fold agar dilution; methicillin resistant strains 48 hours at 30° C.
In short: as §1

[9] = test system: Staphylococcus aureus 256E; assay: as above; conditions: resistant strain Staphylococcus aureus 256E; 2-fold agar dilution; methicillin resistant strains 48 hours at 30° C.
In short: as §1

[10] = test system: Staphylococcus aureus 694E; assay: as above; conditions: resistant strain Staphylococcus aureus 694E; 2-fold agar dilution; methicillin resistant strains 48 hours at 30° C.
In short: as §1

[11] = test system: Staphylococcus aureus 88E; assay: as above; conditions: resistant strain Staphylococcus aureus 88E; 2-fold agar dilution; methicillin resistant strains 48 hours at 30° C.
In short: as §1

[12] = test system: Staphylococcus aureus 703E; assay: as above; conditions: resistant strain Staphylococcus aureus 703E; 2-fold agar dilution; methicillin resistant strains 48 hours at 30° C.
In short: as §1

[13] = test system: Staphylococcus epidermidis 291; assay: as above; conditions: resistant strain Staphylococcus epidermidis 291; 2-fold agar dilution; methicillin resistant strains 48 hours at 30° C.
In short: as §1

[14] = test system: Staphylococcus aureus 179; assay: as above; conditions: resistant strain Staphylococcus aureus 179; 2-fold agar dilution; methicillin resistant strains 48 hours at 30° C.
In short: as §1

[15] = test system: Staphylococcus epidermidis 178; assay: as above; conditions: resistant strain Staphylococcus epidermidis 178; 2-fold agar dilution; methicillin resistant strains 48 hours at 30° C.
In short: as §1

[16] = test system: Staphylococcus aureus 303; assay: as above; conditions: resistant strain Staphylococcus aureus 303; 2-fold agar dilution; methicillin resistant strains 48 hours at 30° C.
In short: as §1

[17] = test system: Staphylococcus aureus 690E; assay: as above; conditions: resistant strain Staphylococcus aureus 690E; 2-fold agar dilution; methicillin resistant strains 48 hours at 30° C.
In short: as §1

[18] = test system: Staphylococcus aureus 8236; assay: as above; conditions: resistant strain Staphylococcus aureus 8236; 2-fold agar dilution; methicillin resistant strains 48 hours at 30° C.
In short: as §1

[19] = test system: Staphylococcus aureus 695E; assay: as above; conditions: resistant strain Staphylococcus aureus 695E; 2-fold agar dilution; methicillin resistant strains 48 hours at 30° C.
In short: as §1

Salmonella typhimurium = assay: In vitro antibacterial activity (MIC), agar dilution; conditions: 2-fold agar dilution, Muller-Hinton agar, 18 hours at 37° C.
In short: as §1

Enterobacter clocae P99 = assay: as above; conditions: 2-fold agar dilution, Muller-Hinton agar, 18 hours at 37° C.
In short: as §1

[20] = test system: Pseudomonas aeruginosa 1771; assay: as above; conditions: 2-fold agar dilution, Muller-Hinton agar, 18 hours at 37° C.
In short: as §1

Klebsiella oxytoca 1082E = assay: as above; conditions: 2-fold agar dilution, Muller-Hinton agar, 18 hours at 37° C.
In short: as §1

[21] = test system: Staphylococcus aureus SG511; assay: as above; conditions: 2-fold agar dilution, Muller-Hinton agar, 18 hours at 37° C.
In short: as §1

[22] = test system: Klebsiella aerogenes 1522E; assay: as above; conditions: 2-fold agar dilution, Muller-Hinton agar, 18 hours at 37° C.
In short: as §1

[23] = test system: Staphylococcus aureus 503; assay: as above; conditions: 2-fold agar dilution, Muller-Hinton agar, 18 hours at 37° C.
In short: as §1

[24] = test system: Streptococcus pyogens 77A; assay: as above; conditions: 2-fold agar dilution, Muller-Hinton agar, 18 hours at 37° C.
In short: as §1

Esherichia coli DC0 = assay: as above; conditions: 2-fold agar dilution, Muller-Hinton agar, 18 hours at 37° C.
In short: as §1

[25] = test system: Streptococcus faecium MD 8b; assay: as above; conditions: 2-fold agar dilution, Muller-Hinton agar, 18 hours at 37° C.
In short: as §1

[26] = test system: Enterobacter clocae 1321E; assay: as above; conditions: 2-fold agar dilution, Muller-Hinton agar, 18 hours at 37° C.
In short: as §1

[27] = test system: Pseudomonas aeruginosa 9027; assay: as above; conditions: 2-fold agar dilution, Muller-Hinton agar, 18 hours at 37° C.
In short: as §1

[28] = test system: Staphylococcus aureus 285; assay: as above; conditions: 2-fold agar dilution, Muller-Hinton agar, 18 hours at 37° C.
In short: as §1

Esherichia coli 1507E = assay: as above; conditions: 2-fold agar dilution, Muller-Hinton agar, 18 hours at 37° C.
In short: as §1

[29] = test system: Streptococcus pyogens 308A; assay: as above; conditions: 2-fold agar dilution, Muller-Hinton agar, 18 hours at 37° C.
In short: as §1

Esherichia coli 078 = assay: as above; conditions: 2-fold agar dilution, Muller-Hinton agar, 18 hours at 37° C.
In short: as §1

Esherichia coli TEM = assay: as above; conditions: 2-fold agar dilution, Muller-Hinton agar, 18 hours at 37° C.
In short: as §1

Esherichia coli DC2 = assay: as above; conditions: 2-fold agar dilution, Muller-Hinton agar, 18 hours at 37° C.
In short: as §1

[30] = test system: Pseudomonas aeruginosa 1771M; assay: as above; conditions: Pseudomonas aeruginosa 1771M; 2-fold agar dilution, Muller-Hinton agar, 18 hours at 37° C.
In short: as §1

[31] = test system: Pseudomonas aeruginosa 1592E; assay: as above; conditions: 2-fold agar dilution, Muller-Hinton agar, 18 hours at 37° C.
In short: as §1

CON=C1CN(c2c(F)c(N)c3c(=O)c(C(=O)O)cn(C4CC4)c3c2F)CC12CNC2.CS(=O)(=O)O [Example 5, 1-Cyclopropyl-5-amino-6,8-difluoro-7-[8-(methoxyimino)-2,6-diazaspiro[3,41]oct-6-yl]-4-oxo-1,4-dihydro-3-quinolinecarboxylic acid methanesulfonate]
minimum inhibitory concentration (MIC) [1]: 13 ng/mL
minimum inhibitory concentration (MIC) [2]: 7 ng/mL
minimum inhibitory concentration (MIC) [3]: 7 ng/mL
minimum inhibitory concentration (MIC) [4]: 98 ng/mL
minimum inhibitory concentration (MIC) [5]: 4 ng/mL
minimum inhibitory concentration (MIC) [6]: 98 ng/mL
minimum inhibitory concentration (MIC) [7]: 7 ng/mL
minimum inhibitory concentration (MIC) [8]: <2 ng/mL
minimum inhibitory concentration (MIC) [9]: 7 ng/mL
minimum inhibitory concentration (MIC) [10]: 7 ng/mL
minimum inhibitory concentration (MIC) [11]: 7 ng/mL
minimum inhibitory concentration (MIC) [12]: 7 ng/mL
minimum inhibitory concentration (MIC) [13]: 391 ng/mL
minimum inhibitory concentration (MIC) [14]: 98 ng/mL
minimum inhibitory concentration (MIC) [15]: 391 ng/mL
minimum inhibitory concentration (MIC) [16]: 98 ng/mL
minimum inhibitory concentration (MIC) [17]: 7 ng/mL
minimum inhibitory concentration (MIC) [18]: 98 ng/mL
minimum inhibitory concentration (MIC) [19]: 7 ng/mL
minimum inhibitory concentration (MIC) (Salmonella typhimurium): <2 ng/mL
minimum inhibitory concentration (MIC) (Enterobacter clocae P99): 7 ng/mL
minimum inhibitory concentration (MIC) [20]: 391 ng/mL
minimum inhibitory concentration (MIC) (Klebsiella oxytoca 1082E): <2 ng/mL
minimum inhibitory concentration (MIC) [21]: <2 ng/mL
minimum inhibitory concentration (MIC) [22]: 25 ng/mL
minimum inhibitory concentration (MIC) [23]: <2 ng/mL
minimum inhibitory concentration (MIC) [24]: <2 ng/mL
minimum inhibitory concentration (MIC) (Esherichia coli DC0): 98 ng/mL
minimum inhibitory concentration (MIC) [25]: 25 ng/mL
minimum inhibitory concentration (MIC) [26]: 4 ng/mL
minimum inhibitory concentration (MIC) [27]: 781 ng/mL
minimum inhibitory concentration (MIC) [28]: 7 ng/mL
minimum inhibitory concentration (MIC) (Esherichia coli 1507E): 7 ng/mL
minimum inhibitory concentration (MIC) [29]: 25 ng/mL
minimum inhibitory concentration (MIC) (Esherichia coli 078): <2 ng/mL
minimum inhibitory concentration (MIC) (Esherichia coli TEM): 13 ng/mL
minimum inhibitory concentration (MIC) (Esherichia coli DC2): 13 ng/mL
minimum inhibitory concentration (MIC) [30]: 195 ng/mL
minimum inhibitory concentration (MIC) [31]: 391 ng/mL
